pIC50: −log10 of the molar value. Where a name gives a salt, the structure may show the parent alone.
These compounds were tested against T1, human recombinant 6His-Nterm SHP2 full-length (Thr2-Arg593) (Homo sapiens, UniProt Q06124) (assay: SHP2 Phosphatase Assay (DiFMUP fluorescence)). Details: SHP2 0.2 nM pre-incubated with 100 nM bi-phosphorylated activating peptide; compound 1000-0.05 nM, 30 min pre-incubation; DiFMUP 20 µM, 45 min, room temperature; 10-concentration dose-response.
T1 construct: 6His-Nterm SHP2 full-length (Thr2-Arg593, R&D system); 6His (N); purchased R&D system
T1 sequence (Q06124 2-593): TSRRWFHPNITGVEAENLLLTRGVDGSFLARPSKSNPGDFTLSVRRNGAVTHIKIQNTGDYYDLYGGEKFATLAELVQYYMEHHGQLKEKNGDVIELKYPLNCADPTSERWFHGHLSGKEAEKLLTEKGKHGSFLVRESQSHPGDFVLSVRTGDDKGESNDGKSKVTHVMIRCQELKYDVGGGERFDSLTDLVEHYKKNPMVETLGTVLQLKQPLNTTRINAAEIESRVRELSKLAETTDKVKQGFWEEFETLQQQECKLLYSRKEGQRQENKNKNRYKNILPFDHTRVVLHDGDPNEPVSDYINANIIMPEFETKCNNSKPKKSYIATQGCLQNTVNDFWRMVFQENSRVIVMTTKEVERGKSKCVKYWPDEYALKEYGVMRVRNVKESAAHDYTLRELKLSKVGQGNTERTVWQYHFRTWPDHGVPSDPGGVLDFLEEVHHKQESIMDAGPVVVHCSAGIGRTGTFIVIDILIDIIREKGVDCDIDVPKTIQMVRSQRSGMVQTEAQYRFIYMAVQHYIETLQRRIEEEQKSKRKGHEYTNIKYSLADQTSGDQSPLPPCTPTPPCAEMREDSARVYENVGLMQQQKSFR
Assay type: biochemical
In short: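 SHP2 (0.2 nM) preactivated ≥10 min with 100 nM bis-phosphorylated peptide, then 30 min with compound (10 concentrations, 1000–0.05 nM) at room temperature, pH 7.2 HEPES buffer with DTT. DiFMUP (20 µM, added solution) reacted 45 min, pervanadate-stopped; fluorescence 350/450 nm. IC50 by 4-parameter logistic fit.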

Row | Structure (SMILES) | pIC50
1 | Cc1nc(N2CCC3(CC2)[C@H](N)c2ccccc2N3C)c2ccnn2c1-c1ccccc1F [Compound 155, (3R)-1'-[7-(2-fluorophenyl)-6-methyl-pyrazolo[1,5-a]pyrazin-4-yl]-1-methyl-spiro [indoline-2,4'-piperidine]-3-amine] | 6.69
2 | Cc1nccc(-c2c(C)nc(N3CCC4(CC3)[C@H](N)c3ccccc3N4C)c3ccnn23)c1Cl [Compound 156, (3R)-1'-[7-(3-chloro-2-methyl-4-pyridyl)-6-methyl-pyrazolo[1,5-a]pyrazin-4-yl]-1-methyl-spiro[indoline-2,4'-piperidine]-3-amine] | 7.46
3 | Cc1nc(N2CCC3(CC2)Cc2ncccc2[C@H]3N)c2ccnn2c1-c1cncs1 [Compound 157, (5S)-1'-(6-methyl-7-thiazol-5-yl-pyrazolo[1,5-a]pyrazin-4-yl)spiro[5,7-dihydrocyclopenta[b]pyridine-6,4'-piperidine] -5-amine hydrochloride] | 7.14
4 | Cc1nc(-c2c(C)nc(N3CCC4(CC3)Cc3ncccc3[C@H]4N)c3ccnn23)cs1 [Compound 158, (5S)-1'-[6-methyl-7-(2-methylthiazol-4-yl)pyrazolo[1,5-a]pyrazin-4-yl]spiro[5,7-dihydrocyclopenta[b]pyridine-6,4'-piperidine] -5-amine hydrochloride] | 7.33
5 | Cc1nc(N2CCC3(CC2)Cc2ncccc2[C@H]3N)c2ccnn2c1-c1ccnnc1 [Compound 159, (5S)-1'-(6-methyl-7-pyridazin-4-yl-pyrazolo[1,5-a]pyrazin-4-yl)spiro[5,7-dihydrocyclopenta[b]pyridine-6,4'-piperidine]-5-amine hydrochloride] | 6.19
6 | Cc1nc(N2CCC3(CC2)Cc2ncccc2[C@H]3N)c2ccnn2c1-c1cscn1 [Compound 160, (5S)-1'-(6-methyl-7-thiazol-4-yl-pyrazolo[1,5-a]pyrazin-4-yl)spiro[5,7-dihydrocyclopenta[b]pyridine-6,4'-piperidine]-5-amine hydrochloride] | 7.20
7 | Cc1nc(C)c(-c2c(C)nc(N3CCC4(CC3)Cc3ncccc3[C@H]4N)c3ccnn23)s1 [Compound 161, (5S)-1'-[7-(2,4-dimethylthiazol-5-yl)-6-methyl-pyrazolo[1,5-a]pyrazin-4-yl]spiro [5,7-dihydrocyclopenta[b]pyridine-6,4'-piperidine]-5-amine hydrochloride] | 7.54
8 | Cc1nc(N2CCC3(CC2)Cc2ncccc2[C@H]3N)c2ccnn2c1-c1ccc2c(c1)OCC2 [Compound 162, (5S)-1'-[7-(2,3-dihydrobenzofuran-6-yl)-6-methyl-pyrazolo[1,5-a]pyrazin-4-yl]spiro[5,7-dihydrocyclopenta[b]pyridine-6,4'-piperidine]-5-amine] | 8.40
9 | Cc1nc(N2CCC3(CC2)Cc2ncccc2[C@H]3N)c2ccnn2c1-c1cc(C(F)(F)F)nn1C [Compound 163, (5S)-1'-[6-methyl-7-[2-methyl-5-(trifluoromethyl)pyrazol-3-yl]pyrazolo[1,5-a]pyrazin-4-yl]spiro[5,7-dihydrocyclopenta[b]pyridine-6,4'-piperidine]-5-amine] | 7.52
10 | Cc1cccc(-c2c(C)nc(N3CCC4(CC3)Cc3ncccc3[C@H]4N)c3ccnn23)c1C [Compound 164, (5S)-1'-[7-(2,3-dimethylphenyl)-6-methyl-pyrazolo[1,5-a]pyrazin-4-yl]spiro[5,7-dihydrocyclopenta[b]pyridine-6,4'-piperidine]-5-amine] | 8.15
11 | Cc1nc(N2CCC3(CC2)Cc2ncccc2[C@H]3N)c2ccnn2c1-c1cncnc1 [Compound 165, (5S)-1'-(6-methyl-7-pyrimidin-5-yl-pyrazolo[1,5-a]pyrazin-4-yl)spiro[5,7-dihydrocyclopenta[b]pyridine-6,4'-piperidine]-5-amine] | 6.43
12 | Cc1cccc(-c2c(C)nc(N3CCC4(CC3)Cc3ncccc3[C@H]4N)c3ccnn23)c1F [Compound 166, (5S)-1'-[7-(2-fluoro-3-methyl-phenyl)-6-methyl-pyrazolo[1,5-a]pyrazin-4-yl]spiro[5,7-dihydrocyclopenta[b]pyridine-6,4'-piperidine]-5-amine] | 8.15
13 | Cc1nc(N2CCC3(CC2)Cc2ncccc2[C@H]3N)c2ccnn2c1-c1ccc2c(c1)CCCO2 [Compound 167, (5S)-1'-(7-chroman-6-yl-6-methyl-pyrazolo[1,5-a]pyrazin-4-yl)spiro[5,7-dihydrocyclopenta[b]pyridine-6,4'-piperidine]-5-amine] | 8.05
14 | CNc1cc(-c2c(C)nc(N3CCC4(CC3)Cc3ncccc3[C@H]4N)c3ccnn23)ccn1 [Compound 168, (5S)-1'-[6-methyl-7-[2-(methylamino)-4-pyridyl]pyrazolo[1,5-a]pyrazin-4-yl]spiro[5,7-dihydrocyclopenta[b]pyridine-6,4'-piperidine]-5-amine] | 7.52
15 | Cc1nc(N2CCC3(CC2)Cc2ncccc2[C@H]3N)c2ccnn2c1-c1ccc2cnccc2c1 [Compound 169, (5S)-1'-[7-(6-isoquinolyl)-6-methyl-pyrazolo[1,5-a]pyrazin-4-yl]spiro[5,7-dihydrocyclopenta[b]pyridine-6,4'-piperidine]-5-amine] | 7.80
16 | Cc1nc(N2CCC3(CC2)Cc2ncccc2[C@H]3N)c2ccnn2c1-c1ccc2scnc2c1 [Compound 170, (5S)-1'-[7-(1,3-benzothiazol-5-yl)-6-methyl-pyrazolo[1,5-a]pyrazin-4-yl]spiro[5,7-dihydrocyclopenta[b]pyridine-6,4'-piperidine]-5-amine] | 7.96
17 | Cc1nc(N2CCC3(CC2)Cc2ncccc2[C@H]3N)c2ccnn2c1-c1ccc2c(c1)CCN2C [Compound 171, (5S)-1'-[6-methyl-7-(1-methylindolin-5-yl)pyrazolo[1,5-a]pyrazin-4-yl]spiro[5,7-dihydrocyclopenta[b]pyridine-6,4'-piperidine]-5-amine] | 7.70
18 | Cc1nc(N2CCC3(CC2)Cc2ncccc2[C@H]3N)c2ccnn2c1-c1cc(C(=O)N(C)C)ccc1F [Compound 172, 4-fluoro-N,N-dimethyl-3-[6-methyl-4-[(5S)-5-aminospiro[5,7-dihydrocyclopenta[b]pyridine-6,4'-piperidine]-1'-yl]pyrazolo[1,5-a]pyrazin-7-yl]benzamide] | < 6.00
19 | COc1ccc(Cl)c(-c2c(C)nc(N3CCC4(CC3)Cc3ncccc3[C@H]4N)c3ccnn23)c1 [Compound 173, (5S)-1'-[7-(2-chloro-5-methoxy-phenyl)-6-methyl-pyrazolo[1,5-a]pyrazin-4-yl]spiro[5,7-dihydrocyclopenta[b]pyridine-6,4'-piperidine]-5-amine] | 7.82
20 | Cc1nc(N2CCC3(CC2)Cc2ncccc2[C@H]3N)c2ccnn2c1-c1cccc(C(F)(F)F)c1F [Compound 174, (5S)-1'-[7-[2-fluoro-3-(trifluoromethyl)phenyl] -6-methyl-pyrazolo[1,5-a]pyrazin-4-yl]spiro[5,7-dihydrocyclopenta[b]pyridine-6,4'-piperidine]-5-amine] | 8.30
21 | COc1ccc(-c2c(C)nc(N3CCC4(CC3)Cc3ncccc3[C@H]4N)c3ccnn23)c(F)c1F [Compound 175, (5 S)-1'-[7-(2,3-difluoro-4-methoxy-phenyl)-6-methyl-pyrazolo[1,5-a]pyrazin-4-yl]spiro[5,7-dihydrocyclopenta[b]pyridine-6,4'-piperidine]-5-amine] | 8.40
22 | Cc1nc(N2CCC3(CC2)Cc2ncccc2[C@H]3N)c2ccnn2c1-c1ccc(N(C)C)nc1 [Compound 176, (5S)-1'-[7-[6-(dimethylamino)-3-pyridyl]-6-methyl-pyrazolo [1 ,5-a]pyrazin-4-yl]spiro[5,7-dihydrocyclopenta[b]pyridine-6,4'-piperidine]-5-amine] | 8.22
23 | Cc1nc(N2CCC3(CC2)Cc2ncccc2[C@H]3N)c2ccnn2c1-c1ccc(N)nc1 [Compound 177, (5S)-1'-[7-(6-amino-3-pyridyl)-6-methyl-pyrazolo[1,5-a]pyrazin-4-yl]spiro[5,7-dihydrocyclopenta[b]pyridine-6,4'-piperidine]-5-amine] | 7.57
24 | Cc1nc(N2CCC3(CC2)Cc2ncccc2[C@H]3N)c2ccnn2c1-c1cccc2c1OCC2 [Compound 178, (5S)-1'-[7-(2,3-dihydrobenzofuran-7-yl)-6-methyl-pyrazolo[1,5-a]pyrazin-4-yl]spiro[5,7-dihydrocyclopenta[b]pyridine-6,4'-piperidine]-5-amine] | 7.85
25 | Cc1nc(N2CCC3(CC2)Cc2ncccc2[C@H]3N)c2ccnn2c1-c1cncc(F)c1 [Compound 179, (5S)-1'-[7-(5-fluoro-3-pyridyl)-6-methyl-pyrazolo[1,5-a]pyrazin-4-yl]spiro[5,7-dihydrocyclopenta[b]pyridine-6,4'-piperidine]-5-amine] | 7.74

Source: patent EP4227307A1 (Genzyme Corporation, priority 2022, dated 2023)
